Test results: the supplement of paper PMC7224384

Legend:
MDA-MB-453 [1] = assay: drug sensitivity score (DSS), single agent (DSS (weighted AUC score)); higher = more sensitive (stronger viability decrease); extreme values may be limits of the assay; conditions: BLU9931 0 nM; 72 h
Outline: (§1)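 Compounds from the FIMM Oncology set were predispensed in singlicate at five 10-fold dilutions (10,000-fold range) on 384-well plates. Each well then received 2000 MDA-MB-453 cells in medium with or without an FGFR4 inhibitor (100 nM final) and was kept at 37 °C, 5% CO2. Cellular ATP was read with CellTiterGlo 2.0 after 72 h and normalised per plate to percent viability from control wells. The drug sensitivity score is a weighted area under a four-parameter logistic fit.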

MDA-MB-453 [2] = assay: drug sensitivity score (DSS), in combination with BLU9931 (DSS (weighted AUC score)); higher = more sensitive (stronger viability decrease); extreme values may be limits of the assay; conditions: BLU9931 100 nM; 72 h
Outline: as §1

Row | Compound | drug sensitivity score (MDA-MB-453 [1]) | drug sensitivity score (MDA-MB-453 [2])
1 | CC(C)[C@@H](CS(=O)(=O)C(C)C)N1C(=O)[C@@](C)(CC(=O)O)C[C@H](c2cccc(Cl)c2)[C@H]1c1ccc(Cl)cc1 [AMG-232] | 0.2 | 0
2 | COc1ccc(-c2ccc3c(N4CCOC[C@@H]4C)nc(N4CCOC[C@@H]4C)nc3n2)cc1CO [AZD8055] | 24.3 | 23.3
3 | S=C(NCc1ccc2c(c1)OCO2)N1CCN(c2ncnc3c2oc2ccccc23)CC1 [Amuvatinib] | 3.3 | 0.3
4 | NC(=O)c1cccc(-c2cccc(OC(=O)NC3CCCCC3)c2)c1 [URB597] | 0 | 0
5 | COc1ccc(Cn2ccc3ccc(C(=O)NO)cc32)cc1 | 0.8 | 2.3
6 | Cc1cnc(NC(=O)Nc2cc(Br)c(C)cc2OC[C@@H]2CNCCO2)cn1 [Rabusertib] | 1.2 | 0.9
7 | Cc1nc(=O)c2cc(CN(C)c3ccc(C(=O)N[C@@H](CCC(=O)O)C(=O)O)s3)ccc2[nH]1 [Raltitrexed] | 5.3 | 3.2
8 | CO[C@H]1C(=O)[C@]2(C)[C@@H](OC)C[C@H]3OC[C@@]3(OC(C)=O)[C@H]2[C@H](OC(=O)c2ccccc2)[C@]2(O)C[C@H](OC(=O)[C@H](O)[C@@H](NC(=O)OC(C)(C)C)c3ccccc3)C(C)=C1C2(C)C [Cabazitaxel] | 14.6 | 8.8
9 | CC(=O)O[C@H]1C(=O)[C@@]2(C)[C@H]([C@H](OC(=O)c3ccccc3)[C@]3(O)C[C@H](OC(=O)[C@H](O)[C@@H](NC(=O)c4ccccc4)c4ccccc4)C(C)=C1C3(C)C)[C@]1(OC(C)=O)CO[C@@H]1C[C@@H]2O [Paclitaxel] | 18.3 | 15.2
10 | Nc1nc(OCc2cc(Br)cs2)c2[nH]cnc2n1 [Lomeguatrib] | 0 | 0
11 | C[C@@H](C(=O)O)c1ccc(-c2ccccc2)c(F)c1 [Tarenflurbil] | 0 | 0
12 | CO[C@H]1C[C@@H]2CC[C@@H](C)[C@@](O)(O2)C(=O)C(=O)N2CCCC[C@H]2C(=O)O[C@H]([C@H](C)C[C@@H]2CC[C@@H](OCCO)[C@H](OC)C2)CC(=O)[C@H](C)/C=C(\C)[C@@H](O)[C@@H](OC)C(=O)[C@H](C)C[C@H](C)/C=C/C=C/C=C/1C [Everolimus] | 9.5 | 13.6
13 | COc1cc2c(Oc3ccc(NC(=O)C4(C(=O)Nc5ccc(F)cc5)CC4)cc3F)ccnc2cc1OCCCN1CCOCC1 [Foretinib] | 1.1 | 1.2
14 | Cn1cc(C[C@@H](N)C(=O)O)c2ccccc21 [1-methyl-D-tryptophan] | 0.2 | 0
15 | O=c1[nH]cc(F)c(=O)[nH]1 [Fluorouracil] | 2.1 | 0.1
16 | C[C@H]1C[C@@H](n2c(Nc3ccc(OC(F)(F)F)cc3)nc3cc(CCC(=O)O)ccc32)CC(C)(C)C1 | 0 | 0
17 | Cc1nn(C)c(COc2ccc(N3CCN(S(=O)(=O)N(C)C)CC3)cc2)c1-c1cccc2c(CCCOc3cccc4ccccc34)c(C(=O)O)n(CCN3CCOCC3)c12 | 5.8 | 5.8
18 | NS(=O)(=O)NCCNc1nonc1/C(=N/O)Nc1ccc(F)c(Br)c1 [Epacadostat] | 0 | 0
19 | Oc1ccc2c(c1)CC[C@H](c1ccccc1)[C@@H]2c1ccc(OCCN2CCCC2)cc1 [Lasofoxifene] | 0.7 | 0.2
20 | CC(C)c1cc(-c2n[nH]c(=O)n2-c2ccc3c(ccn3C)c2)c(O)cc1O [Ganetespib] | 18.7 | 18.5
21 | Nc1nc(Cl)nc2c1ncn2[C@H]1C[C@H](O)[C@@H](CO)O1 [Cladribine] | 0 | 0
22 | CCN(CC)CCNC(=O)c1c(C)[nH]c(/C=C2\C(=O)Nc3ccc(F)cc32)c1C [Sunitinib] | 0.2 | 0
23 | O=C(Nc1cc(Cl)cc2c1[nH]c1cnccc12)c1cccnc1 [PS-1145] | 0 | 0.3
24 | COc1cc2c(cc1OC(C)C)[C@H](c1ccc(Cl)cc1)N(c1ccc(N(C)C[C@H]3CC[C@H](N4CCN(C)C(=O)C4)CC3)cc1)C(=O)C2 [NVP-CGM097] | 7.9 | 8.5
25 | O=c1[nH]c(=O)n([C@H]2C[C@H](O)[C@@H](CO)O2)cc1F [Floxuridine] | 4.9 | 2
26 | CO[C@H]1C[C@@H]2CC[C@@H](C)[C@@](O)(O2)C(=O)C(=O)N2CCCC[C@H]2C(=O)O[C@H]([C@H](C)C[C@@H]2CC[C@@H](O)[C@H](OC)C2)CC(=O)[C@H](C)/C=C(\C)[C@@H](O)[C@@H](OC)C(=O)[C@H](C)C[C@H](C)/C=C/C=C/C=C/1C [Sirolimus] | 5.1 | 10.5

Row | Compound | drug sensitivity score (MDA-MB-453 [1]) | drug sensitivity score (MDA-MB-453 [2])
27 | NC1(c2ccc(-c3nc4ccn5c(=O)[nH]nc5c4cc3-c3ccccc3)cc2)CCC1 [MK-2206] | 8.3 | 8.9
28 | CC1=C(/C=C/C(C)=C/C=C/C(C)=C/C(=O)O)C(C)(C)CCC1 [Tretinoin] | 0 | 0
29 | O=C(Nc1cnn2ccc(N3CCC[C@@H]3c3cc(F)ccc3F)nc12)N1CC[C@H](O)C1 [Larotrectinib] | 0.4 | 0
30 | C=CC(=O)Nc1cccc(Nc2nc(Nc3ccc(N4CCN(C(C)=O)CC4)cc3OC)ncc2C(F)(F)F)c1 [Rociletinib] | 7.8 | 7.9
31 | C=CCn1c(=O)c2cnc(Nc3ccc(N4CCN(C)CC4)cc3)nc2n1-c1cccc(C(C)(C)O)n1 [AZD1775] | 13.7 | 12.4
32 | CO[C@H]1CC[C@H](N2C(=O)CNc3ncc(-c4ccc(C(C)(C)O)nc4)nc32)CC1 [CC-223] | 6.1 | 6
33 | CC(C)[C@H]1C(=O)N[C@@H](CCCNC(=N)N)C(=O)NCC(=O)N[C@@H](CC(=O)O)C(=O)N[C@H](Cc2ccccc2)C(=O)N1C [Cilengitide] | 0 | 0
34 | Cn1ncnc1[C@H]1c2n[nH]c(=O)c3cc(F)cc(c23)N[C@@H]1c1ccc(F)cc1 [Talazoparib] | 1.7 | 3.1
35 | O=C(O)C1(C(=O)O)CCC1.[NH2-].[NH2-].[Pt+2] [Carboplatin] | 2.2 | 2.6
36 | C[C@@H]1CN(Cc2ccc(F)cc2)[C@@H](C)CN1C(=O)c1cc2c(C(=O)C(=O)N(C)C)cn(C)c2cc1Cl [Talmapimod] | 0 | 0
37 | Cc1c(N)nc([C@H](CC(N)=O)NC[C@H](N)C(N)=O)nc1C(=O)N[C@H](C(=O)N[C@H](C)[C@@H](O)[C@H](C)C(=O)N[C@H](C(=O)NCCc1nc(-c2nc(C(=O)NCCC[S+](C)C)cs2)cs1)[C@@H](C)O)[C@@H](OC1OC(CO)C(O)C(O)C1OC1OC(CO)C(O)C(OC(N)=O)C1O)c1cnc[nH]1 (some centres undefined) [Bleomycin] | 0 | 0
38 | CN(CC(=O)N(Cc1ccc(C2CCCCC2)cc1)c1ccc(C(=O)O)cc1)S(=O)(=O)c1c(F)c(F)c(F)c(F)c1F [SH-4-54] | 5.4 | 7.4
39 | CCN1CCN(Cc2ccc(Nc3ncc(F)c(-c4cc(F)c5nc(C)n(C(C)C)c5c4)n3)nc2)CC1 [Abemaciclib] | 4.1 | 7.8
40 | COc1cc(C)c(/C=C/C(C)=C/C=C/C(C)=C/C(=O)O)c(C)c1C [Acitretin] | 0.2 | 0
41 | Cc1cc(-c2nc(-c3ccc(OC(F)(F)F)cc3)no2)nn1Cc1ccnc(N2CCN(C3CC3)CC2)c1 [BAY 87-2243] | 12.2 | 10.4
42 | N[C@@H]1CCCN(c2c(/C=C3\SC(=O)NC3=O)cccc2-c2ccccc2)C1 [AZD1208] | 0.3 | 0.1
43 | OC[C@H]1O[C@@H](n2cnc3c2N=CNC[C@H]3O)C[C@@H]1O [Pentostatin] | 1 | 0
44 | COc1cc(Nc2ncc(F)c(Nc3ccc4c(n3)NC(=O)C(C)(C)O4)n2)cc(OC)c1OC [Tamatinib] | 0 | 0
45 | COc1c(C)cnc(Cn2cnc3c(Cl)nc(N)nc32)c1C [BIIB021] | 19.5 | 20.1
46 | CCC1(c2ccc(N)cc2)CCC(=O)NC1=O (centres undefined) [Aminoglutethimide] | 0 | 1.3
47 | C[C@@H](Nc1cc(F)cc(F)c1)c1cc(C(=O)N(C)C)cc2c(=O)cc(N3CCOCC3)oc12 [AZD-8186] | 1.7 | 2.3
48 | CC(=O)c1cnc2ccc(-c3cc(Cl)c(O)c(Cl)c3)nc2c1N[C@H]1CC[C@H](CN(C)C)CC1 [OTS167] | 17.4 | 15.9
49 | NC(=S)N/N=C/c1ncccc1N [Triapine] | 0.1 | 1.3
50 | CN1CCC(COc2cnc(-c3cccc(Cn4nc(-c5cccc(C#N)c5)ccc4=O)c3)nc2)CC1 [Tepotinib] | 0 | 0
51 | Cc1ccc(NS(=O)(=O)c2cccc(C#N)c2)c2[nH]cc(C#N)c12 [E7820] | 3.3 | 1.1
52 | COc1cc(C(=O)O)ccc1NC(=O)[C@@H]1N[C@@H](CC(C)(C)C)[C@](C#N)(c2ccc(Cl)cc2F)[C@H]1c1cccc(Cl)c1F [Idasanutlin] | 1.1 | 0
